Patent US12624018B1, “Inhibitors of RIPK2 and medical uses thereof” (Odyssey Therapeutics, Inc., priority 2022, dated 2026)

Columns and labels:
human NOD2 signaling = assay: Inhibition of human NOD2 signaling in HEK-Blue-hNOD2 cells (L18-MDP stimulated, SEAP reporter); type: cell-based; conditions: Homo sapiens, HEK-Blue hNOD2, HEK-Blue-hNOD2 cells, NOD2 ligand stimulation, SEAP reporter; read-out: hNOD2 IC50
In short: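 HEK-Blue-hNOD2 cells (HEK293 with NOD2 and SEAP reporter), 12500/well, treated with 10-point 3-fold compound dilutions plus L18-MDP 0.5 ng/mL final, 24 h at 37 °C. Supernatant SEAP read with QUANTI-Blue after 3 h at 620 nm; IC50 by 4-parameter fit vs DMSO±L18-MDP controls.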

[1] = biological target: T1, RIPK2 and XIAP protein-protein interaction (Homo sapiens, UniProt O43353); assay: Inhibition of the interaction of RIPK2 with XIAP (NanoBRET in HEK293T cells); type: cell-based; conditions: RIPK2 HaloTag / XIAP NanoLuc, read-out: NanoBRET Scaffolding IC50
T1 construct: the N-terminus of full-length RIPK2 was appended with the HaloTag fusion protein; expressed in transfected cells; host or cells: HEK293T
T1 sequence (O43353 whole entry, the tested form may be a part): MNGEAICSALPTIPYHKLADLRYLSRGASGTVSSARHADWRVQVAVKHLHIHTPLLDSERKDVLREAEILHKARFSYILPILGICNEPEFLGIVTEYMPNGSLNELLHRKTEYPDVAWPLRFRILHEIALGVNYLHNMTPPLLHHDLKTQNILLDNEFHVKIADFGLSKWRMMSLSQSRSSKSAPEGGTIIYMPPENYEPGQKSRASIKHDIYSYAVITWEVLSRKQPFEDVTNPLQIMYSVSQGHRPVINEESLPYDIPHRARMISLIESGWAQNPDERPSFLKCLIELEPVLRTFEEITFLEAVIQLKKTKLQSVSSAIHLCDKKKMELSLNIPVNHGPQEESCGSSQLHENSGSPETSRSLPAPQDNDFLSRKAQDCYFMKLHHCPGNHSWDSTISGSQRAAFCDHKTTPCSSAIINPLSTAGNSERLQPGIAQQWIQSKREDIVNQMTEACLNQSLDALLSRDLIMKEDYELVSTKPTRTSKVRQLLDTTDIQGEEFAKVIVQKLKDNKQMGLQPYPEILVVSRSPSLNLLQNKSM
Excerpt: An assay measuring the RIPK2 and XIAP protein-protein interaction was generated using the NanoBRET protein:protein interaction system (Promega) which measures the energy transfer from a bioluminescent protein donor (NanoLuc fusion protein) to a fluorescent protein acceptor (Halotag fusion protein). In this assay, the C-terminus of full-length XIAP was appended with the NanoLuc fusion protein and the N-terminus of full-length RIPK2 was appended with the HaloTag fusion protein. Assay medium consisted of Opti-MEM I reduced serum medium with no phenol red plus 4% heat inactivated FBS. Transfection reagents were combined in a microfuge tube as follows: 400 μL of assay medium, 8 μL of vector with N-terminus of RIPK2 HaloTag fusion protein (vector concentration at 1 μg/μL), 0.8 μL of vector with C-terminus of XIAP NanoLuc fusion protein (vector concentration at 1 μg/μL), and 24 μL of FuGENE HD transfection reagent (Promega, catalogue number E2312). […] Test compounds were prepared into a 10 mM DMSO solution and were serially diluted into 10 points using a 3-fold dilution in a 384 well plate using a TECAN EV0200.
Method: HEK293T cells were transfected with the RIPK2 HaloTag fusion and XIAP NanoLuc fusion vectors in suspension. […] Transfection reagents were pre-mixed and incubated at room temperature for 30 minutes. Then the total transfection reagent mixture was added dropwise to the 16 mL cell suspension and mixed gently. 40 μL of the cells and transfection reagent suspension was plated into a white 384 well plate and incubated at 37° C. in a CO2 incubator for 24 hours. […] Lastly, a 3× solution of NanoBRET Nano-Glo substrate in Opti-MEM I reduced serum media (no phenol red; 20 μL total volume) was added to each well and incubated for 2-3 minutes at room temperature. The plate was then measured using 460 nm filter (donor emission) and 618 nm filter (acceptor emission) in an EnVision multimode plate reader (PerkinElmer). The NanoBRET ratio values were determined by dividing the acceptor emission value by the donor emission value for each sample.

RIPK2 enzyme = biological target: T2, RIPK2 enzyme (Homo sapiens, UniProt O43353); assay: RIPK2 inhibition (ADP-Glo Kinase Assay); type: biochemical; conditions: RIPK2 5 nM, ATP 150 μM, MBP substrate, read-out: RIPK2 IC50
T2 construct: purchased Carna 09-128
T2 sequence (O43353 1-299 limits assumed): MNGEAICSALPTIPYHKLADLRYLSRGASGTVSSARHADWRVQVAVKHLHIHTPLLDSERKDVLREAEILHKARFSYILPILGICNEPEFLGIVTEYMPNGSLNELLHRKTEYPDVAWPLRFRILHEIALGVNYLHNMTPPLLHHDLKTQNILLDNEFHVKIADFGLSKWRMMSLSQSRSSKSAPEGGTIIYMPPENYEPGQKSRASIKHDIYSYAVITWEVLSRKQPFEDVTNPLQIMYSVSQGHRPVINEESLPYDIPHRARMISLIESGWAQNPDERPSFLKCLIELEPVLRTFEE
In short: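 Human RIPK2 (5 nM) preincubated with compound 30 min at room temperature in 50 mM HEPES pH 7.5, 10 mM MgCl2, 2 mM DTT, 1 mM EGTA, 0.01% Brij-35, 0.05% BSA; native swine MBP as substrate. ADP formed quantified by ADP-Glo luminescence; percent inhibition relative to DMSO and no-enzyme controls.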

| IC50 (human NOD2 signaling) [nM] | IC50 [1] [nM] | IC50 (RIPK2 enzyme) [nM] | SMILES |
| --- | --- | --- | --- |
| 1.9 | 176 | < 2.5 | [2H]C([2H])([2H])NC(=O)c1ccc2nccc(Oc3cc(F)c(CC(=O)Nc4cnn(C56CC(C5)C6)c4)cc3C)c2c1 (single isomer, unassigned) [Compound 563, 4-(4-(2-((1-(bicyclo[1.1.1]pentan-1-yl)-1H-pyrazol-4-yl)amino)-2-oxoethyl)-5-fluoro-2-methylphenoxy)-N-(methyl-d3)quinoline-6-carboxamide] |
| 0.5 | 7.5 | < 2.5 | CC(C)(C)n1cc(NC(=O)Cc2cc(Cl)c(Oc3ccnc4ccc(S(=O)(=O)C5CC5)cc34)cc2F)cn1 [Compound 464, N-(1-(tert-butyl)-1H-pyrazol-4-yl)-2-(5-chloro-4-((6-(cyclopropylsulfonyl)quinolin-4-yl)oxy)-2-fluorophenyl)acetamide] |
| 1.6 | 6.6 | < 2.5 | CNC(=O)c1ccc2nccc(Oc3c(C)cc(CC(=O)Nc4cnn(C(C)(C)C)c4)cc3F)c2c1 [Compound 469, 4-(4-(2-((1-(tert-butyl)-1H-pyrazol-4-yl)amino)-2-oxoethyl)-2-fluoro-6-methylphenoxy)-N-methylquinoline-6-carboxamide] |
| 1.1 | 13.1 | < 2.5 | Cc1cc(CC(=O)Nc2cnn(C(C)(C)C)c2)c(F)cc1Oc1ccnc2ccc(C(=O)N3[C@H](C)CNC[C@@H]3C)cc12 [Compound 470, N-(1-(tert-butyl)-1H-pyrazol-4-yl)-2-(4-((6-((2R,6S)-2,6-dimethylpiperazine-1-carbonyl)quinolin-4-yl)oxy)-2-fluoro-5-methylphenyl)acetamide] |
| 9.9 | 1020 | < 2.5 | Cc1cc(CC(=O)Nc2cnn(C(C)(C)C)c2)c(F)cc1Oc1ccnc2ccc(C(=O)N3C[C@@H]4C[C@H]3CN4)cc12 [Compound 471, 2-(4-((6-((1S,4S)-2,5-diazabicyclo[2.2.1]heptane-2-carbonyl)quinolin-4-yl)oxy)-2-fluoro-5-methylphenyl)-N-(1-(tert-butyl)-1H-pyrazol-4-yl)acetamide] |
| 7.8 | 171 | < 2.5 | Cc1cc(CC(=O)Nc2cnn(C(C)(C)C)c2)cc(Cl)c1Oc1ccnc2ccc(S(C)(=O)=O)cc12 [Compound 473, N-(1-(tert-butyl)-1H-pyrazol-4-yl)-2-(3-chloro-5-methyl-4-((6-(methylsulfonyl)quinolin-4-yl)oxy)phenyl)acetamide] |
| 95.6 | 621 | 8.1 | Cc1cc(CC(=O)Nc2cnn(C(C)(C)C)c2)c(Cl)cc1Oc1ccnc2ccc(S(C)(=O)=O)cc12 [Compound 474, N-(1-(tert-butyl)-1H-pyrazol-4-yl)-2-(2-chloro-5-methyl-4-((6-(methylsulfonyl)quinolin-4-yl)oxy)phenyl)acetamide] |
| 5.9 | 52.1 | < 2.5 | Cc1cc(CC(=O)Nc2cnn(C(C)(C)C)c2)c(F)cc1Oc1ccnc2ccc(-c3nccnc3C)cc12 [Compound 476, N-(1-(tert-butyl)-1H-pyrazol-4-yl)-2-(2-fluoro-5-methyl-4-((6-(3-methylpyrazin-2-yl)quinolin-4-yl)oxy)phenyl)acetamide] |
| 5.4 | 38.7 | < 2.5 | Cc1cc(CC(=O)Nc2cnn(C(C)(C)C)c2)c(F)cc1Oc1ccnc2ccc(-c3ncncc3C)cc12 [Compound 477, N-(1-(tert-butyl)-1H-pyrazol-4-yl)-2-(2-fluoro-5-methyl-4-((6-(5-methylpyrimidin-4-yl)quinolin-4-yl)oxy)phenyl)acetamide] |
| 1.4 | 5.8 | < 2.5 | Cc1cc(CC(=O)Nc2cnn(C(C)(C)C)c2)c(F)cc1Oc1ccnc2ccc(-c3c[nH]nc3C)cc12 [Compound 479, N-(1-(tert-butyl)-1H-pyrazol-4-yl)-2-(2-fluoro-5-methyl-4-((6-(3-methyl-1H-pyrazol-4-yl)quinolin-4-yl)oxy)phenyl)acetamide] |
| 4.2 | 4.5 | < 2.5 | CNCc1nnc(-c2ccc3nccc(Oc4cc(F)c(CC(=O)Nc5cnn(C(C)(C)C)c5)cc4C)c3c2)o1 [Compound 481, N-(1-(tert-butyl)-1H-pyrazol-4-yl)-2-(2-fluoro-5-methyl-4-((6-(5-((methylamino)methyl)-1,3,4-oxadiazol-2-yl)quinolin-4-yl)oxy)phenyl)acetamide] |
| 0.3 | 4.6 | < 2.5 | Cc1nnc(-c2ccc3nccc(Oc4cc(F)c(CC(=O)Nc5cnn(C(C)(C)C)c5)cc4C)c3c2)o1 [Compound 482, N-(1-(tert-butyl)-1H-pyrazol-4-yl)-2-(2-fluoro-5-methyl-4-((6-(5-methyl-1,3,4-oxadiazol-2-yl)quinolin-4-yl)oxy)phenyl)acetamide] |
| 0.3 | 47.5 | < 2.5 | Cc1cc(CC(=O)Nc2cnn(C(C)(C)C)c2)ccc1Oc1ccnc2ccc(C(N)=O)cc12 [Compound 487, 4-(4-(2-((1-(tert-butyl)-1H-pyrazol-4-yl)amino)-2-oxoethyl)-2-methylphenoxy)quinoline-6-carboxamide] |
| 0.2 | 3.4 | < 2.5 | CNC(=O)c1ccc2nccc(Oc3ccc(CC(=O)Nc4cnn(C(C)(C)C)c4)cc3C)c2c1 [Compound 488, 4-(4-(2-((1-(tert-butyl)-1H-pyrazol-4-yl)amino)-2-oxoethyl)-2-methylphenoxy)-N-methylquinoline-6-carboxamide] |
| 0.1 | 7.1 | < 2.5 | Cc1cc(CC(=O)Nc2cnn(C(C)(C)C)c2)ccc1Oc1ccnc2cc(F)c(C(N)=O)cc12 [Compound 489, 4-(4-(2-((1-(tert-butyl)-1H-pyrazol-4-yl)amino)-2-oxoethyl)-2-methylphenoxy)-7-fluoroquinoline-6-carboxamide] |
| 0.1 | 24.2 | < 2.5 | CNC(=O)c1cc2c(Oc3ccc(CC(=O)Nc4cnn(C(C)(C)C)c4)cc3C)ccnc2cc1F [Compound 490, 4-(4-(2-((1-(tert-butyl)-1H-pyrazol-4-yl)amino)-2-oxoethyl)-2-methylphenoxy)-7-fluoro-N-methylquinoline-6-carboxamide] |
| 0.4 | 20.5 | < 2.5 | [2H]C([2H])([2H])NC(=O)c1cc2c(Oc3cc(F)c(CC(=O)Nc4cnn(C(C)(C)C)c4)cc3C)ccnc2cc1F [Compound 494, 4-(4-(2-((1-(tert-butyl)-1H-pyrazol-4-yl)amino)-2-oxoethyl)-5-fluoro-2-methylphenoxy)-7-fluoro-N-(methyl-d3)quinoline-6-carboxamide] |
| 0.5 | 70.8 | < 2.5 | Cc1cc(CC(=O)Nc2cnn(C(C)(C)C)c2)ccc1Oc1ccnc2cc(C)c(S(C)(=O)=O)cc12 [Compound 495, N-(1-(tert-butyl)-1H-pyrazol-4-yl)-2-(3-methyl-4-((7-methyl-6-(methylsulfonyl)quinolin-4-yl)oxy)phenyl)acetamide] |
| 0.5 | 127 | < 2.5 | Cc1cc(CC(=O)Nc2cnn(C(C)(C)C)c2)c(F)cc1Oc1ccnc2cc(C)c(S(C)(=O)=O)cc12 [Compound 496, N-(1-(tert-butyl)-1H-pyrazol-4-yl)-2-(2-fluoro-5-methyl-4-((7-methyl-6-(methylsulfonyl)quinolin-4-yl)oxy)phenyl)acetamide] |
| 0.6 | 10.8 | < 2.5 | CC(C)(C)n1cc(NC(=O)Cc2cc(Cl)c(Oc3ccnc4ccc(C(N)=O)cc34)cc2F)cn1 [Compound 497, 4-(4-(2-((1-(tert-butyl)-1H-pyrazol-4-yl)amino)-2-oxoethyl)-2-chloro-5-fluorophenoxy)quinoline-6-carboxamide] |
